# pIC50: −log10 of the molar value.
# Tests used:
# [1] = Circular dichroism (CD) analysis; format: physicochemical; details: for α-Helix (%) 50% TFE / α-Helix (%) Benign: relative to molar ellipticity of A12L/A20L in 50% TFE; for [θ]222 Benign / [θ]222 50% TFE: CD, 25 °C; for [θ]222 Benign: benign buffer pH 7.0, 100 mM KCl, 50 mM KH2PO4/K2HPO4; for [θ]222 50% TFE: benign buffer:TFE 1:1 vol/vol; for α-Helix (%) Benign: benign buffer
# Procedure: The secondary structures of the peptides were determined using a Jasco J-810 CD spectrometer (Jasco, Easton, MD) at 25 °C [12]. The benign buffer (pH 7.0, 100 mM KCl, 50 mM KH2PO4/K2HPO4) was used to simulate the hydrophilic environment and 50% 2,2,2-trifluoroethanol (TFE) (benign buffer: TFE = 1: 1, vol/vol) was used to simulate the hydrophobic environment. The mean residue molar ellipticities at 222 nm, [θ]222 (degree·cm^2·dmol^−1), were used to calculate the relative helical contents of MAPs[24].
# CD spectroscopy illustrated the secondary structure of peptide analogs under benign environment and 50% TFE to mimic the hydrophobic conditions of cell membranes. CD results are shown in Supplementary Table S2 and Fig. S1. […] The helical content (%) of peptides in two groups relative to the molar ellipticity value of the peptide A12L/A20L in 50% TFE. In addition, except the peptide of V13E, the relative helicity of the peptides are in the same order of V13L>V13A>V13S>V13K and A12L/A20L>A20L>L6A>L6A/L17A in the benign and hydrophobic environments and also in the same order with the peptide hydrophobicity.
# HeLa cells = format: cell-based, human; details: 24 h
# Procedure: (§1) The MTT cell proliferation assay was used to investigate the anticancer activity and cytotoxicity of MAPs against cancer cell lines (HeLa, A549, SGC-7901, and B16) and normal cells (3T3-L1), respectively. Cells (5 × 10^3) were seeded in 96-well plates and incubated overnight. The peptide samples were then added to cells with final concentrations ranging from 1 μM to 125 μM. After 24 h, 20 μL of 5 mg/mL MTT solution in PBS was added to the cells and treated for 4 h at 37 °C. The formazan crystals were dissolved by 150 μL of dimethyl sulfoxide (DMSO). Finally, the absorbance was determined at 492 nm. The results were expressed as IC50, representing the concentration at which cell viability was reduced by 50%. All assays were repeated in triplicate.
# SGC7901 cells = format: cell-based, human; details: 24 h
# Procedure: as §1
# A549 cells = format: cell-based, human; details: 24 h
# Procedure: as §1
# S. aureus ATCC25923 = format: cell-based; details: ATCC25923, 24 h
# Procedure: (§2) Then, 10 μL of peptides was added. […] All assays were repeated in triplicate.
# E. coli ATCC25922 = format: cell-based; details: ATCC25922, 24 h
# Procedure: as §2
# [2] = system: gram-positive bacteria (S. aureus and S. epidermidis); format: cell-based
# Procedure: as §2
# [3] = system: gram-negative bacteria (P. aeruginosa and E. coli); format: cell-based
# Procedure: as §2
# S. epidermidis ATCC12228 = format: cell-based; details: ATCC12228, 24 h
# Procedure: as §2
# P. aeruginosa ATCC27853 = format: cell-based; details: ATCC27853, 24 h
# Procedure: as §2
# [4] = RP-HPLC retention time (peptide hydrophobicity); format: physicochemical; details: used as measure of peptide hydrophobicity
# Procedure: All peptides were synthesized by solid-phase peptide synthesis using Fmoc (9-fluorenyl-methoxycar-bonyl) chemistry and rink amide 4-methylbenzhydrylamine resin (MBHA resin; 0.8 mmol/g), as described previously. The crude peptides were purified on a LC-6A preparative reversed-phase high performance liquid chromatography (RP-HPLC, Shimadzu, Kyoto, Japan) using a Zorbax 300 SB-C8 column (250 × 9.4 mm inner diameter, […] particle size, 300 Å pore size), as described previously. The purity of the peptides was characterized by analytical RP-HPLC, mass spectrometry, and amino acid analysis.
# B16 cells = format: cell-based, mouse; details: 24 h
# Procedure: as §1
# 3T3-L1 cells = format: cell-based, mouse; details: 24 h
# Procedure: as §1
# PC/PG (7:3 w/w) LUVs = assay: Tryptophan fluorescence with LUVs; format: binding; details: PC/PG (7:3 w/w) LUVs versus HEPES buffer, 25 °C
# Text: (§3) In order to investigate the interaction between peptides and difference types of cell membranes, three different LUVs were used to mimic a prokaryotic cell membrane (PC/PG), a normal eukaryotic cell membrane (PC/Chol), and a cancer cell membrane (PC/SM/PE/PS/Chol). Tryptophan residue in the peptide sequence was used as a fluorescent probe to examine the interaction of peptides with model membranes. […] For example, in the PC/PG (7:3 w/w) anionic prokaryotic mimicking model membrane, peptides V13L and A12L/A20L had the strongest hydrophobicity with blue shift values of approximately 37 nm and 38 nm, respectively. Conversely, peptide V13E with a negative charge of glutamic acid residue, and peptide L6A/L17A with the lowest hydrophobicity had blue shift values of approximately 18 nm and 17 nm, respectively. […] In addition, within PC/SM/PE/PS/Chol (4.35:4.35:1:0.3:1 w/w) as a cancer-mimicking model membrane, the same results could be obtained in that peptide hydrophobicity correlates with anticancer activity and the blue shift values of peptides.
# (§4) In accordance with previously described methods, LUVs were prepared with PC/PG (7:3 w/w), PC/Chol (8:1 w/w), and PC/SM/PE/PS/Chol (4.35:4.35:1:0.3:1 w/w) to mimic prokaryotic cell, […], membranes, respectively. Lipids using the freeze-thaw method as described previously, followed by extrusion through […] double-stacked nuclepore filters using an Mini-Extruder (Avanti Polar Lipids, Inc.)[11][27].
# (§5) Three kinds of LUVs were prepared and cultured in HEPES buffer (pH 7.4, 10 mM HEPES, 150 mM NaCl) and the molar concentration was adjusted to 100 μM. A total of 14 μL of 100 μM MAPs was mixed with 686 μL of 100 μM liposomes at 25 °C for 10 min. A Shimadzu RF-5301PC, (excitation wavelength of […], emission wavelength of 300–450 nm) was used to measure the tryptophan fluorescence. Potassium iodide (KI) as a quencher was added to the previous reaction system for a final concentration of 0.02–0.08 M, respectively. The experimental data were plotted according to the Stern–Volmer equation F0/F = 1 + Ksv[Q], where F0 and F are the fluorescence intensity in the absence or presence of a quencher at concentration [Q], respectively, and Ksv is the Stern–Volmer quenching constant.
# PC/Chol (8:1 w/w) LUVs = assay: Tryptophan fluorescence with LUVs; format: binding; details: PC/Chol (8:1 w/w) LUVs versus HEPES buffer, 25 °C
# Text: as §3, §4, §5
# [5] = system: PC/SM/PE/PS/Chol (4.35:4.35:1:0.3:1 w/w) LUVs; assay: Tryptophan fluorescence with LUVs; format: binding; details: PC/SM/PE/PS/Chol (4.35:4.35:1:0.3:1 w/w) LUVs versus HEPES buffer, 25 °C
# Text: as §3, §4, §5
Substance,α-Helix (%) 50% TFE [1] [%],[θ]222 Benign [1] [degree·cm^2·dmol^−1],[θ]222 50% TFE [1] [degree·cm^2·dmol^−1],α-Helix (%) Benign [1] [%],pIC50 (HeLa cells),pIC50 (SGC7901 cells),pIC50 (A549 cells),G+ MIC S. aureus ATCC25923 (S. aureus ATCC25923) [µM],G− MIC E. coli ATCC25922 (E. coli ATCC25922) [µM],G+ MIC GM [2] [µM],G− MIC GM [3] [µM],G+ MIC S. epidermidis ATCC12228 (S. epidermidis ATCC12228) [µM],G− MIC P. aeruginosa ATCC27853 (P. aeruginosa ATCC27853) [µM],tR (RP-HPLC retention time) [4] [min],pIC50 (B16 cells),pIC50 (3T3-L1 cells),PC/PG Blue shift (PC/PG (7:3 w/w) LUVs) [nm],PC/Chol Blue shift (PC/Chol (8:1 w/w) LUVs) [nm],PC/SM/PE/PS/Chol Blueshift [5] [nm]
Ac-KWKSFLKTFKSAAKTVLHTALKAISS-NH2 [Peptide V13A],79.68,−6524.79,−34527.20,15.06,5.26,5.63,5.17,8,4,4,5.66,2,8,47.337,5.44,5.17,34,4,–
Ac-KWKSFAKTFKSAKKTVLHTALKAISS-NH2 [Peptide L6A],70.67,−3836.18,−30626.20,8.85,4.02,4.10,4.03,>125,64,–,89.44,64,125,36.053,4.13,4.06,19,1,23
Ac-KWKSFLKTFKSASKTVLHTALKAISS-NH2 [Peptide V13S],71.30,−4400.44,−30899.20,10.15,4.91,5.37,4.92,8,8,5.66,8,4,8,43.038,5.25,4.77,27,3,–

# — article PMC4929710, “Specificity and mechanism of action of alpha-helical membrane-active peptides interacting with model and biological membranes by single-molecule force spectroscopy” (Scientific Reports, 2016)
